The subject of assay [1] is Pseudomonas aeruginosa NCTC-10490. Briefly: in vitro antimicrobial activity, two-fold agar-plate dilution method (MIC). The class given is cell-based. Conditions: NCTC10490, heart infusion agar, 37° C., 20 hours. On the procedure:
(§1) In vitro antimicrobial activity was determined by the two-fold agar-plate dilution method as described below.
(§2) One loopful of an overnight culture of each test strain in Tripticase-soy broth (approximately 10^8 viable cells per ml) was streaked on heart infusion agar (HI-agar) containing graded concentrations of antimicrobial agents, and the minimal inhibitory concentration (MIC) was expressed in term of μg/ml after incubation at 37° C. for 20 hours.

For assay [2], the system named is Proteus vulgaris IAM-1025. Described as above. To be noted: IAM1025, heart infusion agar, 37° C., 20 hours. Type of assay: cell-based. On the procedure: as §1, §2

In brackets after ≈: the same amount, converted by molar mass.

A word on the MIC: it is the smallest concentration in the dilution series that meets the test's criterion for growth inhibition. Low readings indicate a more susceptible organism, high ones a less susceptible organism. As for `CC(O/N=C(\C(=O)NC1C(=O)N2C(C(=O)O)=CCSC12)c1nc(N)sc1Cl)C(=O)O` (stereo not drawn) [Compound 1, 7-[2-(2-amino-5-chlorothiazol-4-yl)-2-(1-carboxyethoxyimino)acetamido]-3-cephem-4-carboxylic acid (syn isomer)], the MIC was 0.78 µg/mL (≈ 1.64 µM) in assay [1] and 0.05 µg/mL (≈ 0.105 µM) in assay [2].

For the compound `C#CCO/N=C(\C(=O)NC1C(=O)N2C(C(=O)O)=C(CSc3nncs3)CSC12)c1nc(N)sc1Cl` (stereo not drawn) [Compound 2, 7-[2-(2-amino-5-chlorothiazol-4-yl)-2-propargyloxyiminoacetamido]-3-(1,3,4-thiadiazol-2-yl)thiomethyl-3-cephem-4-carboxylic acid (syn isomer)], the MIC in assay [1] was determined as 0.78 µg/mL (≈ 1.36 µM); in assay [2], 1.56 µg/mL (≈ 2.73 µM).

In the case of `Nc1nc(/C(=N/OCC(=O)O)C(=O)NC2C(=O)N3C(C(=O)O)=C(CSc4nncs4)CSC23)c(Cl)s1` (stereo not drawn) [Compound 3, 7-[2-(2-amino-5-chlorothiazol-4-yl)-2-carboxymethoxyiminoacetamido]-3-(1,3,4-thiadiazol-2-yl)thiomethyl-3-cephem-4-carboxylic acid (syn isomer)], the figures for the minimal inhibitory concentration (MIC) in assay [1] and in assay [2] were 0.78 µg/mL (≈ 1.32 µM) and 0.025 µg/mL (≈ 0.0422 µM), respectively.

With `C=CCO/N=C(\C(=O)NC1C(=O)N2C(C(=O)O)=C(CSc3nncs3)CSC12)c1nc(N)sc1Cl` (stereo not drawn) [Compound 4, 7-[2-(2-amino-5-chlorothiazol-4-yl)-2-allyloxyiminoacetamido]-3-(1,3,4-thiadiazol-2-yl)thiomethyl-3-cephem-4-carboxylic acid (syn isomer)], the values for the minimal inhibitory concentration (MIC) in assay [1] and in assay [2] were 0.78 µg/mL (≈ 1.36 µM) and 1.56 µg/mL (≈ 2.72 µM), respectively.

With `Nc1nc(/C(=N/OC2C=CCC2)C(=O)NC2C(=O)N3C(C(=O)O)=C(CSc4nncs4)CSC23)c(Cl)s1` (stereo not drawn) [Compound 5, 7-[2-(2-amino-5-chlorothiazol-4-yl)-2-(2-cyclopenten-1-yl)oxyiminoacetamido]-3-(1,3,4-thiadiazol-2-yl)thiomethyl-3-cephem-4-carboxylic acid (syn isomer)], the MIC in assay [1] and in assay [2] was 0.39 µg/mL (≈ 0.65 µM) throughout.

In the case of `Nc1nc(/C(=N/OCC(=O)O)C(=O)NC2C(=O)N3C(C(=O)O)=C(Cl)CSC23)c(Cl)s1` (stereo not drawn) [Compound 6, 7-[2-(2-amino-5-chlorothiazol-4-yl)-2-carboxymethoxyiminoacetamido]-3-chloro-3-cephem-4-carboxylic acid (syn isomer)], the MIC in assay [1] amounted to 0.78 µg/mL (≈ 1.57 µM); in assay [2], 0.05 µg/mL (≈ 0.101 µM).

Values taken from patent publication US4596829A, “7-acylaminocephalosporanic acid derivatives and processes for the preparation thereof” (Fujisawa Pharmaceutical Co., Ltd., priority 1980, dated 1986).
